Assay results published in patent publication US20230416765A1, “AGROBACTERIUM RHIZOGENES AND METHODS OF TRANSFORMING CELLS” (priority 2020, published 2023).

System: MSU440
Experiment: Antibiotic susceptibility test on MSU440
Format: cell-based, Agrobacterium rhizogenes
Description: The development of a disarmed strain of MSU440 relied on a selectable marker (an antibiotic resistance gene or the counter-selectable marker sacB). Antibiotic susceptibility test on MSU440 were formed with the antibiotics outlined in Table 5.

[1] = MSU440 response to antibiotic at 50 ug/mL

Question: How did the Resistant or susceptible (MSU440 response to antibiotic at 30 ug/mL) turn out when `O=C(N[C@H](CO)[C@H](O)c1ccc([N+](=O)[O-])cc1)C(Cl)Cl` [chloramphenicol] was run?
Answer: resistant

Question: `CC1(C)S[C@@H]2[C@H](NC(=O)C(C(=O)O)c3ccccc3)C(=O)N2[C@H]1C(=O)O` (some centres unmarked) [carbenicillin] was tested. Which Resistant or susceptible (MSU440 response to antibiotic at 100 ug/mL) did it give?
Answer: susceptible

Question: Which Resistant or susceptible [1] does the source give for `CN[C@@H]1[C@H](O)[C@H](NC)[C@H]2O[C@@]3(O)C(=O)C[C@@H](C)O[C@H]3O[C@@H]2[C@H]1O` [spectinomycin] here?
Answer: resistant

Question: Which Resistant or susceptible (MSU440 response to antibiotic at 35 ug/mL) does the source give for gentamicin here?
Answer: susceptible

Question: Which Resistant or susceptible [1] does the source give for `[H]/N=C(/N)N[C@H]1[C@H](O)[C@@H](O)[C@H](O[C@@H]2O[C@@H](C)[C@](O)(C=O)[C@H]2O[C@@H]2O[C@@H](CO)[C@H](O)[C@@H](O)[C@@H]2NC)[C@@H](N/C(N)=N\[H])[C@@H]1O` [streptomycin] here?
Answer: resistant
